Results taken from ChEMBL document CHEMBL4814026, “Discovery of novel reversible monoacylglycerol lipase inhibitors via docking-based virtual screening” (Bioorg Med Chem Lett, 2021).
Values belong to the compound of their own block, whether it stands above or below them. Activity calls are given as the source filed them. The calls are words filed in the database; no cut-off is given here.

Tests used:
[1] = biological target: T1, Monoglyceride lipase (Homo sapiens, UniProt Q99685); test: Inhibition of MAGL (unknown origin)
T1 sequence (Q99685 whole entry): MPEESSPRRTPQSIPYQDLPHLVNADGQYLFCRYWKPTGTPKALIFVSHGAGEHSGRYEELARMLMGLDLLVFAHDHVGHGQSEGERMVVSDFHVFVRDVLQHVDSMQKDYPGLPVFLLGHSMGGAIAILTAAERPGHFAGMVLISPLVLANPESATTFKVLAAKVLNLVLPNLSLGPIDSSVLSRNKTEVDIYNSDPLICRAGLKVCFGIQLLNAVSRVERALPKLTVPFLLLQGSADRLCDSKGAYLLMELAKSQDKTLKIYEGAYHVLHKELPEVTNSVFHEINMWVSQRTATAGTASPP

[2] = biological target: T2, Monoglyceride lipase (Rattus norvegicus, UniProt Q8R431); test: Inhibition of recombinant rat MAGL by LC-MS analysis
T2 sequence (Q8R431 whole entry): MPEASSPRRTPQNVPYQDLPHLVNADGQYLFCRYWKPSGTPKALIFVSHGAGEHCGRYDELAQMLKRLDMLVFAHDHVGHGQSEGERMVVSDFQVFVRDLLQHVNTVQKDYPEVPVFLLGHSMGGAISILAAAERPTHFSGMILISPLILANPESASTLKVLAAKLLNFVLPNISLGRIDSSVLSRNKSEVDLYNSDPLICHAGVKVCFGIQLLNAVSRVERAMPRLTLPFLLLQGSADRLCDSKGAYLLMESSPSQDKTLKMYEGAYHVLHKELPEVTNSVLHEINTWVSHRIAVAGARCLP

[3] = test system: RAW264.7; test: Antiinflammatory activity in mouse RAW264.7 cells assessed as reduction in LPS-induced IL-6 mRNA expression measured after 24 hrs by RT-PCR analysis; format: functional, cell-based; details: dose 20-40 µM
[4] = test system: RAW264.7; test: Antiinflammatory activity in mouse RAW264.7 cells assessed as reduction in LPS-induced CCL-2 mRNA expression measured after 24 hrs by RT-PCR analysis; format: functional, cell-based; details: dose 20-40 µM
[5] = biological target: T3, Monoglyceride lipase (Homo sapiens) (UniProt Q99685); test: Reversible inhibition of MAGL (unknown origin)
T3 sequence (whole entry): T1 sequence (Q99685 whole entry)

[6] = biological target: T4, Monoglyceride lipase (Mus musculus) (UniProt O35678); test: Inhibition of MAGL in mouse RAW264.7 cells assessed as increase in 2-AG level at 30 uM; format: cell-based
T4 sequence (whole entry): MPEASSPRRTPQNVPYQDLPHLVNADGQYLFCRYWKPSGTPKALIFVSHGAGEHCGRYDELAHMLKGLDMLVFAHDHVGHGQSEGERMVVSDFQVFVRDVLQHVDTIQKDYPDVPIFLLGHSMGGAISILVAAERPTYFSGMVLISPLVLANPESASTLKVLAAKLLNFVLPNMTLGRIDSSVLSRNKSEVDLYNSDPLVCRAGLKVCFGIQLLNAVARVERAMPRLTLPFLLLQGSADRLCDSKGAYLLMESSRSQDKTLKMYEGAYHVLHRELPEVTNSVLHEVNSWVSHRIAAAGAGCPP

[7] = biological target: T3, Monoglyceride lipase (Homo sapiens); test: Inhibition of MAGL (unknown origin) in presence of DTT
[8] = biological target: T1, Monoglyceride lipase; test: Binding affinity to MAGL (unknown origin) by SPR analysis
[9] = test system: RAW264.7; test: Antiinflammatory activity in mouse RAW264.7 cells assessed as reduction in LPS-induced IL-1beta mRNA expression measured after 24 hrs by RT-PCR analysis; format: functional, cell-based; details: dose 20-40 µM

SMILES: O=C(C1CCN(c2nc3ncccc3s2)CC1)N1CCN(Cc2ccc3c(c2)OCO3)CC1
IC50 [1]: > 33.3 µM

SMILES: O=C(C1CCCN(c2nc3ncccc3s2)C1)N1CCN(Cc2ccc3c(c2)OCO3)CC1 (configuration not stated)
IC50 [1]: > 33.3 µM

SMILES: COC(=O)[C@]1(C)CC[C@]2(C)CC[C@]3(C)C4=CC=C5C(=CC(=O)C(O)=C5C)[C@]4(C)CC[C@@]3(C)[C@@H]2C1 [PRISTIMERIN]
IC50 [2]: 0.093 µM

SMILES: O=C(c1ccc2nc(N3CCCCC3)sc2c1)N1CCN(c2ccccn2)CC1
IC50 [1]: > 33.3 µM

SMILES: COc1cc(N2CCN(C(=O)c3ccc4nc(N5CCC(C)CC5)sc4c3)CC2)cc(OC)c1OC
IC50 [1]: > 33.3 µM

SMILES: CC(C)=CCC[C@@H](C)[C@@H]1CC[C@]2(C)C3=C(CC[C@@]12C)[C@@]1(C)CC[C@H](O)C(C)(C)[C@@H]1CC3 [EUPHOL]
IC50 [2]: 0.315 µM

SMILES: COc1cccc(N2CCN(C(=O)c3ccc4nc(N5CCC(C)CC5)sc4c3)CC2)c1
IC50 [1]: 6.58 µM

The next lines start with results.

IC50 [1]: 2.87 µM
SMILES: CC1CCN(c2nc3ccc(C(=O)N4CCN(Cc5ccccc5)CC4)cc3s2)CC1

inhibition [5]: Active | inhibition [6]: Active | inhibition [7]: Active | Kd [8]: 0.71 µM | IC50 [1]: 2.84 µM
SMILES: COc1ccc(N2CCN(C(=O)c3ccc4nc(N5CCC(C)CC5)sc4c3)CC2)cc1
Activity [3]: Dose-Dependent Effect | Activity [4]: Dose-Dependent Effect | Activity [9]: Dose-Dependent Effect

IC50 [1]: 5.8 µM
SMILES: Cc1ccc(Cl)cc1N1CCN(C(=O)c2ccc3nc(N4CCC(C)CC4)sc3c2)CC1
